Patent USRE38460E1 (priority 1994, dated 2004)
Where two headings read alike, the source gives them in different places.

Key:
[1] = biological target: T1, acetylcholinesterase (AChE) (Rattus norvegicus, UniProt P37136); experiment: biochemical; type: biochemical; conditions: for IC50 / IC50 ratio BuChE/AChE: Table 1; for IC50: AChE taken from rat's red cell membrane; for IC50 ratio BuChE/AChE: red cell membrane AChE, serum BuChE; for inhibition effect on acetylcholinesterase (in words) / inhibition effect on acetylcholinesterase compared with huperzine A / inhibition effect on acetylcholinesterase compared with physostigmine and galanthamine: see Tables 1, 2 and 6
T1 construct: from tissue; host or cells: rat red cell membrane
Method: (§1) In the present invention a calorimetric method reported by Ellman was used to determine the effect of inhibition of the pharmaceutical on enzyme activity. The total volume of the solution of the enzyme activity reaction was 4 ml, which contained 0.3 mmol/L of acetylcholin iodide (acetylcholinesterase substrate), or 0.4 mmol/L of butyrylcholin iodide (butyrylcholinesterase substrate), 1 ml of the buffer solution of 25 mmol/L of phosphate of pH 7.4, and water to make up to 4 ml (including the amount of the enzyme solution and the testing reagent added afterwards). After the solution was kept at 37° C. for 5 minutes, 0.1-0.2 ml of enzyme solution (red cell membrane or serum of rat) was added, or 0.1-0.3 ml of the testing reagent was added at the same time. The solution was kept at the same temperature for another 8 minutes. Then 1 ml of 3% of sodium lauryl sulphate was added to terminate the reaction. Finally 1 ml of 0.2% 5,5-dithio-2,2′-nitro-benzoic acid solution was added for developing.
(§2) AChE taken from rat's red cell membrane. BuChE taken from rat's serum.
T1 sequence (P37136 other isoform, or with tags, fused parts or gaps): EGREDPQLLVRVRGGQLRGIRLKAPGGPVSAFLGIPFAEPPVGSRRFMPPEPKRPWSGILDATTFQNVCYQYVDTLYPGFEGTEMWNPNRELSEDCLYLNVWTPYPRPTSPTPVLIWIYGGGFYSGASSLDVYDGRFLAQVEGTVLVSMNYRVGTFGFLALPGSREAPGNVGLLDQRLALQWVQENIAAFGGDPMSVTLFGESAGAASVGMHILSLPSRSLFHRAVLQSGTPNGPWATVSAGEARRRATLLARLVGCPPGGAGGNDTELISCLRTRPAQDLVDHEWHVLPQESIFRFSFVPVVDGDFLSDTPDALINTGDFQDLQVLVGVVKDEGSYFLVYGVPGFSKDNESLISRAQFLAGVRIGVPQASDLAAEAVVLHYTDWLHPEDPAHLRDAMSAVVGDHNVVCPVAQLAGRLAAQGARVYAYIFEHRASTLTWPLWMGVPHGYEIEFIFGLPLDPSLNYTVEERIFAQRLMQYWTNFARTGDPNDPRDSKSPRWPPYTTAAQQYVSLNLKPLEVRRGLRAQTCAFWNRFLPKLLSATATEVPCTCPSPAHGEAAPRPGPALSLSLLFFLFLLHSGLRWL

[2] = biological target: T2, butyrylcholinesterase (BuChE) (Rattus norvegicus, UniProt Q9JKC1); experiment: In-vitro anticholinesterase effect, colorimetric method (Ellman), BuChE from rat's serum; type: biochemical; conditions: for inhibition effect on butyrylcholinesterase (pseudo enzyme) compared with huperzine A: see Tables 1, 2 and 6
T2 construct: from tissue; host or cells: rat serum
Method: as §1, §2
(§3) AChE taken from homogenate of rat's cortex. BuChE taken from rat's serum.

[3] = biological target: T3, acetylcholinesterase (AChE) (Rattus norvegicus, UniProt P37136); experiment: biochemical; type: biochemical; conditions: Table 2; for IC50: AChE taken from homogenate of rat's cortex; for IC50 ratio BuChE/AChE: cortex AChE, serum BuChE
T3 construct: from tissue; host or cells: homogenate of rat cortex
T3 sequence (P37136 32-614): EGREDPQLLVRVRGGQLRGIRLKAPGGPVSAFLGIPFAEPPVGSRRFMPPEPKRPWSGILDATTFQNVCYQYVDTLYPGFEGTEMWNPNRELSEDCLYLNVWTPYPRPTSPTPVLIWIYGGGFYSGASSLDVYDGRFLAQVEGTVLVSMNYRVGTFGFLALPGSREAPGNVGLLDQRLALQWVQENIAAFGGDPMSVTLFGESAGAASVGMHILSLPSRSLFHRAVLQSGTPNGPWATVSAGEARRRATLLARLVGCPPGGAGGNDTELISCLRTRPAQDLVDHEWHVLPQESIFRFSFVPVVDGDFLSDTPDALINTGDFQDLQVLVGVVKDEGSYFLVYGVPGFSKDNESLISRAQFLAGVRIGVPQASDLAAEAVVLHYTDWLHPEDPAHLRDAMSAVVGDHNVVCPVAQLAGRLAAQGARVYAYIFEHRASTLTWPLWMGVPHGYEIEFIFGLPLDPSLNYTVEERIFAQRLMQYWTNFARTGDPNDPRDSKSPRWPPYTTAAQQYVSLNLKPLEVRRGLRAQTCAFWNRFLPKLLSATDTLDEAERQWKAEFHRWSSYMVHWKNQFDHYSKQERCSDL
Method: as §1, §3

[4] = test system: memory impairment caused by scopolamine; experiment: Mouse passive escape operation (platform jumping method), memory impairment caused by scopolamine; type: in vivo, mice; conditions: for delitescence of get-down (sec ± SEM): mice, tested after 24 hours; for effect on improving memory (in words): mouse passive escape operation, compared with compound of formula (I)
[5] = test system: memory impairment caused by scopolamine; experiment: 8-arm maze spatial distinction operation of rat, memory impairment caused by scopolamine; type: in vivo; conditions: for effect on improving memory (in words): 8-arm maze spatial distinction operation of rat, compared with compound of formula (I); for No. of mistakes in operation before reaching the standard, reference memory (X + SEM) / No. of mistakes in operation before reaching the standard, working memory (X + SEM): rats, 8-arm maze
[6] = Critical toxicity on mice (Bliss method); type: in vivo; conditions: mouse, in vivo, po, mice, p.o., Bliss method, mortality within 7 days
Method: (§4) Test of each pharmaceutical was carried out using 4-5 dosage group.
(§5) Mortality within 7 days was observed.

mice = experiment: Critical toxicity on mice (Bliss method); type: in vivo; conditions: for LD50 relative to that of the compound of formula (I): mice; for critical toxicity compared with compound (I): mouse, in vivo
Method: as §4, §5

acetylcholinesterase = biological target: T4, acetylcholinesterase (Rattus norvegicus, UniProt P37136); experiment: Study on kinetics of enzyme; type: biochemical
T4 sequence (P37136 32-614): T3 sequence (P37136 32-614)
Method: In the present invention a calorimetric method reported by Ellman was used to determine the effect of inhibition of the pharmaceutical on enzyme activity. The total volume of the solution of the enzyme activity reaction was 4 ml, which contained 0.3 mmol/L of acetylcholin iodide (acetylcholinesterase substrate), or 0.4 mmol/L of butyrylcholin iodide (butyrylcholinesterase substrate), 1 ml of the buffer solution of 25 mmol/L of phosphate of pH 7.4, and water to make up to 4 ml (including the amount of the enzyme solution and the testing reagent added afterwards). After the solution was kept at 37° C. for 5 minutes, 0.1-0.2 ml of enzyme solution (red cell membrane or serum of rat) was added, or 0.1-0.3 ml of the testing reagent was added at the same time. The solution was kept at the same temperature for another 8 minutes. Then 1 ml of 3% of sodium lauryl sulphate was added to terminate the reaction. Finally 1 ml of 0.2% 5,5-dithio-2,2′-nitro-benzoic acid solution was added for developing. “721” spectrophotometer was used to determine the density of light at 440 nm. A solution without addition of the pharmaceutical to inhibit the enzyme activity was used as a control (100%).

AChE = biological target: T5, AChE (Rattus norvegicus, UniProt P37136); experiment: biochemical; conditions: Table 6
T5 construct: 0.1-0.2 ml of enzyme solution (red cell membrane or serum of rat) was added; from tissue; host or cells: rat tissue
T5 sequence (P37136 32-614): T3 sequence (P37136 32-614)
Method: as §1

BuChE = biological target: T6, BuChE (Rattus norvegicus, UniProt Q9JKC1); experiment: In-vitro anticholinesterase effect (Table 6), BuChE; type: biochemical; conditions: read-out: inhibition activity BuChE at 10(μM)
T6 construct: from tissue; host or cells: rat serum
Method: as §1

[7] = scopolamine + derivative 2 + 0.2 mg/kg ip + po
[8] = scopolamine + derivative 2 + 0.4 mg/kg ip + po
[9] = scopolamine + derivative 0.2 ± 0.1 mg/kg ip + po
[10] = scopolamine + derivative 0.2 ± 0.3 mg/kg ip + po
[11] = first of two columns headed LD50, read-out: LD50 (first column) (95% confidence limit)
[12] = second of two columns headed LD50, read-out: LD50 (second column) (95% confidence limit)
[13] = scopolamine + derivative 0.124 + 0.2 mg/kg ip + po

T2 sequence (Q9JKC1 24-597): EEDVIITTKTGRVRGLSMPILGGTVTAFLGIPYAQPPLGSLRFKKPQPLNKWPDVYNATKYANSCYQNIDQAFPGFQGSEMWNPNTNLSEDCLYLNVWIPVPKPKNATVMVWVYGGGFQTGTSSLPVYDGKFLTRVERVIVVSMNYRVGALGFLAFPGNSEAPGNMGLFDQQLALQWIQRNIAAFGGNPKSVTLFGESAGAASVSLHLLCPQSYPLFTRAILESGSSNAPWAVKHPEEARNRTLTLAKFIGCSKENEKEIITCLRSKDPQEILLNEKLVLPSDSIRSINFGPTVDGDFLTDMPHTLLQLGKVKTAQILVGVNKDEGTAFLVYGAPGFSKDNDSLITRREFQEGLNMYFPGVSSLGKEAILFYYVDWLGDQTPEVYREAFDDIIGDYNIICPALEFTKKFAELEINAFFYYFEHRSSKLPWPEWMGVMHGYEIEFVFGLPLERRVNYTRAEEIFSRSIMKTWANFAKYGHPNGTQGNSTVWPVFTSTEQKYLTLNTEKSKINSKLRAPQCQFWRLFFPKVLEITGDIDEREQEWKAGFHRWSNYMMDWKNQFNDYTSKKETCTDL
T6 sequence (Q9JKC1 24-597): as above

SMILES | inhibitor of acetylcholinesterase (summary in words) [1] | IC50 [1] | IC50 ratio BuChE/AChE [1] | inhibition effect on acetylcholinesterase (in words) [1] | inhibition effect on acetylcholinesterase compared with huperzine A [1] | inhibition effect on acetylcholinesterase compared with physostigmine and galanthamine [1] | IC50 [2] | inhibition effect on butyrylcholinesterase (pseudo enzyme) compared with huperzine A [2] | IC50 [3] | IC50 ratio BuChE/AChE [3] | delitescence of get-down (sec ± SEM) [4, 7] | delitescence of get-down (sec ± SEM) [4, 8] | effect on improving memory (in words) [4] | effect on improving memory (in words) [5] | LD50 [6, 11] | LD50 [6, 12] | LD50 relative to that of the compound of formula (I) (mice) | critical toxicity compared with compound (I) (mice) | combination with acetylcholinesterase (reversibility) (acetylcholinesterase) | further results
CC=C1C2C=C(C)CC1(N=Cc1c(O)cc(OC)cc1OC)c1ccc(=O)[nH]c1C2 (stereo not drawn) [derivative No. 19] | highly effective selective inhibitors | 145 nM | 722.1 | remarkable inhibition effect | slightly weaker | apparently stronger | 105000 nM | weaker inhibition effect | 144 nM | 724.6 | 71.6 ± 14.5 s | 92.2 ± 15.5 s | very strong effect | very strong effect | 11.1 mg/kg | 14.1 mg/kg | ⅓ | lower critical toxicity | reversible | delitescence of get-down (sec ± SEM) ([4]; scopolamine + derivative 2 + 0.1 mg/kg ip + po): 48.9 ± 12.6 s; delitescence of get-down (sec ± SEM) ([4]; scopolamine + derivative 2 + 0.3 mg/kg ip + po): 99.8 ± 16.4 s; No. of mistakes in operation before reaching the standard, reference memory (X + SEM) [5, 9]: 1.33 ± 0.21; No. of mistakes in operation before reaching the standard, working memory (X + SEM) [5, 9]: 1.33; No. of mistakes in operation before reaching the standard, reference memory (X + SEM) [5, 10]: 0.33; No. of mistakes in operation before reaching the standard, working memory (X + SEM) [5, 10]: 0.17
CC=C1C2C=C(C)CC1(N=Cc1ccc(OC)c(O)c1)c1ccc(=O)[nH]c1C2 (stereo not drawn) [derivative No. 18] | highly effective selective inhibitors | 151 nM | 709.9 | remarkable inhibition effect | slightly weaker | apparently stronger | 107000 nM | weaker inhibition effect | 151 nM | 708.2 | 67.7 ± 11.7 s | 48.7 ± 6.9 s | very strong effect | very strong effect | 9.6 mg/kg | 14.4 mg/kg | ⅓ | lower critical toxicity | reversible | BuChE/AChE (AChE): >500; inhibition at 1 µM (AChE; 1 μM): 90.2%; IC50 (AChE; read-out: inhibition activity AChE IC50): 84 nM; inhibition at 10 µM (BuChE): 0%; delitescence of get-down (sec ± SEM) ([4]; scopolamine + derivative 3 + 0.3 mg/kg ip + po): 64.0 ± 9.8 s; No. of mistakes in operation before reaching the standard, reference memory (X + SEM) [5, 13]: 0.67; No. of mistakes in operation before reaching the standard, working memory (X + SEM) [5, 13]: 0.33
